Experimental data from patent US20100056524A1, “Compound” (priority 2008, published 2010).

Molecular target: T1, TBK1 (Homo sapiens, UniProt Q9UHD2)
T1 construct: All protein kinases were of human origin and encoded full length proteins, unless indicated otherwise; His6; made in house; host or cells: insect Sf21 cells
T1 sequence (Q9UHD2 1-729): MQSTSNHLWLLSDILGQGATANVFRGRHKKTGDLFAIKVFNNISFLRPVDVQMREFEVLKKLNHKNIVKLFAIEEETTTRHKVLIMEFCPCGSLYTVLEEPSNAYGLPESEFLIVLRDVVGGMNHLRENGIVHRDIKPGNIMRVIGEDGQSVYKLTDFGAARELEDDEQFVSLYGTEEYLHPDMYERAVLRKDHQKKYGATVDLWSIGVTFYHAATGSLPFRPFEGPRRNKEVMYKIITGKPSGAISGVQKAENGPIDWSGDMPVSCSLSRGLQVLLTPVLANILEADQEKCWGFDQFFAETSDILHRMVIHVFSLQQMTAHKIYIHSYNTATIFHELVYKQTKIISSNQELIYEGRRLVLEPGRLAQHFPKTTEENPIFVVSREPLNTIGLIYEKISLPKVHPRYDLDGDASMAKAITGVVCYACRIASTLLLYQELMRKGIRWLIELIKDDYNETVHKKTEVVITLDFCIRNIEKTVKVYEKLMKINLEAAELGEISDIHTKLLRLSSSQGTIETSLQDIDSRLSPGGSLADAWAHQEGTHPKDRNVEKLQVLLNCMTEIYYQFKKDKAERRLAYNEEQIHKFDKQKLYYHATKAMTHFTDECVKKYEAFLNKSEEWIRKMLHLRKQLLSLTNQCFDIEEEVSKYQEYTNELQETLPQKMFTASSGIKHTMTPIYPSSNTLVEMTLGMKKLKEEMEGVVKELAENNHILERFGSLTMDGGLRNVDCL
Test: TBK1 protein kinase assay ([γ-33P]ATP, P81 filterplates)
Assay type: biochemical
Settings: 50 μM ATP; read-out: Potency (TBK1 IC50 potency score)
Method in brief: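 Human TBK1 assayed for 30 min with peptide substrate (300 μM), 50 μM [γ-33P]ATP and 10 mM magnesium acetate in 50 mM Tris/HCl pH 7.5, 0.1 mM EGTA, 0.1% 2-mercaptoethanol. Stopped with orthophosphoric acid and counted on P81 filters. IC50 from 10 compound concentrations.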

Row | SMILES | IC50 [nM]
1 | O=C(NCCCNc1nc(Nc2ccc(OC3CCN(C4CC4)CC3)nc2)ncc1C1CC1)C1CCC1 [Example 188, Cyclobutanecarboxylic acid (3-{5-cyclopropyl-2-[6-(1-cyclopropyl-piperidin-4-yloxy)-pyridin-3-ylamino]-pyrimidin-4-ylamino}-propyl)-amide] | < 100
2 | O=C(NCCCNc1nc(Nc2ccc3ncnn3c2)ncc1C1CC1)C1CCC1 [Example 189, Cyclobutanecarboxylic acid {3-[5-cyclopropyl-2-([1,2,4]triazolo[1,5-a]pyridin-6-ylamino)-pyrimidin-4-ylamino]-propyl}-amide] | < 100
3 | O=C(NCCCNc1nc(Nc2ccc3nccnc3c2)ncc1C1CC1)C1CCC1 [Example 190, Cyclobutanecarboxylic acid {3-[5-cyclopropyl-2-(quinoxalin-6-ylamino)-pyrimidin-4-ylamino]-propyl}-amide] | < 100
4 | O=C(NCCCNc1nc(Nc2ccc3ncccc3c2)ncc1C1CC1)C1CCC1 [Example 191, Cyclobutanecarboxylic acid {3-[5-cyclopropyl-2-(quinolin-6-ylamino)-pyrimidin-4-ylamino]-propyl}-amide] | < 100
5 | O=C(NCCCNc1nc(Nc2cnn(C3CCOCC3)c2)ncc1C1CC1)C1CCC1 [Example 192, Cyclobutanecarboxylic acid (3-{5-cyclopropyl-2-[1-(tetrahydro-pyran-4-yl)-1H-pyrazol-4-ylamino]-pyrimidin-4-ylamino}-propyl)-amide] | < 100
6 | O=C(NCCCNc1nc(Nc2ccc3cnn(CC4CC4)c3c2)ncc1C1CC1)C1CCC1 [Example 193, Cyclobutanecarboxylic acid {3-[5-cyclopropyl-2-(1-cyclopropylmethyl-1H-indazol-6-ylamino)-pyrimidin-4-ylamino]-propyl}-amide] | < 100
7 | O=C(NCCCNc1nc(Nc2ccc3cn(CC4CC4)nc3c2)ncc1C1CC1)C1CCC1 [Example 194, Cyclobutanecarboxylic acid {3-[5-cyclopropyl-2-(2-cyclopropylmethyl-2H-indazol-6-ylamino)-pyrimidin-4-ylamino]-propyl}-amide] | < 100
8 | CN1CCC(Oc2ccc(Nc3ncc(C4CC4)c(NCCCNC(=O)C4CCC4)n3)cn2)CC1 [Example 195, Cyclobutanecarboxylic acid (3-{5-cyclopropyl-2-[6-(1-methyl-piperidin-4-yloxy)-pyridin-3-ylamino]-pyrimidin-4-ylamino}-propyl)-amide] | < 100
9 | CN1CCN(CCOc2ccc(Nc3ncc(C4CC4)c(NCCCNC(=O)C4CCC4)n3)cn2)CC1 [Example 196, Cyclobutanecarboxylic acid [3-(5-cyclopropyl-2-{6-[2-(4-methyl-piperazin-1-yl)-ethoxy]-pyridin-3-ylamino}-pyrimidin-4-ylamino)-propyl]-amide] | < 100
10 | CN1CCc2ccc(Nc3ncc(C4CC4)c(NCCCNC(=O)C4CCC4)n3)cc2C1 [Example 197, Cyclobutanecarboxylic acid {3-[5-cyclopropyl-2-(2-methyl-1,2,3,4-tetrahydro-isoquinolin-7-ylamino)-pyrimidin-4-ylamino]-propyl}-amide] | < 100
11 | Cn1cnc2cc(Nc3ncc(C4CC4)c(NCCCNC(=O)C4CCC4)n3)cnc21 [Example 198, Cyclobutanecarboxylic acid {3-[5-cyclopropyl-2-(3-methyl-3H-imidazo[4,5-b]pyridin-6-ylamino)-pyrimidin-4-ylamino]-propyl}-amide] | < 100
12 | CN1CCc2cc(Nc3ncc(C4CC4)c(NCCCNC(=O)C4CCC4)n3)ccc2C1 [Example 199, Cyclobutanecarboxylic acid {3-[5-cyclopropyl-2-(2-methyl-1,2,3,4-tetrahydro-isoquinolin-6-ylamino)-pyrimidin-4-ylamino]-propyl}-amide] | < 100
13 | Cn1ncc2cc(Nc3ncc(C4CC4)c(NCCCNC(=O)C4CCC4)n3)cnc21 [Example 200, Cyclobutanecarboxylic acid {3-[5-cyclopropyl-2-(1-methyl-1H-pyrazolo[3,4-b]pyridin-5-ylamino)-pyrimidin-4-ylamino]-propyl}-amide] | < 100
14 | O=C(NCCCNc1nc(Nc2cnn(CC3CC3)c2)ncc1C1CC1)C1CCC1 [Example 201, Cyclobutanecarboxylic acid {3-[5-cyclopropyl-2-(1-cyclopropylmethyl-1H-pyrazol-4-ylamino)-pyrimidin-4-ylamino]-propyl}-amide] | < 100
15 | O=C(NCCCNc1nc(Nc2cnn(C3CCC3)c2)ncc1C1CC1)C1CCC1 [Example 202, Cyclobutanecarboxylic acid {3-[2-(1-cyclobutyl-1H-pyrazol-4-ylamino)-5-cyclopropyl-pyrimidin-4-ylamino]-propyl}-amide] | < 100
16 | CC(C)N1CCC(n2cc(Nc3ncc(C4CC4)c(NCCCNC(=O)C4CCC4)n3)cn2)CC1 [Example 203, Cyclobutanecarboxylic acid (3-{5-cyclopropyl-2-[1-(1-isopropyl-piperidin-4-yl)-1H-pyrazol-4-ylamino]-pyrimidin-4-ylamino}-propyl)-amide] | < 100
17 | CNc1ccc(Nc2ncc(C3CC3)c(NCCCNC(=O)C3CCC3)n2)cn1 [Example 204, Cyclobutanecarboxylic acid {3-[5-cyclopropyl-2-(6-methylamino-pyridin-3-ylamino)-pyrimidin-4-ylamino]-propyl}-amide] | < 100
18 | CC(C)(C)N1CCC(n2cc(Nc3ncc(C4CC4)c(NCCCNC(=O)C4CCC4)n3)cn2)CC1 [Example 205, Cyclobutanecarboxylic acid (3-{2-[1-(1-tert-butyl-piperidin-4-yl)-1H-pyrazol-4-ylamino]-5-cyclopropyl-pyrimidin-4-ylamino}-propyl)-amide] | < 100
19 | O=C(NCCCNc1nc(Nc2ccc(N3CCN(C4CC4)CC3)nc2)ncc1C1CC1)C1CCC1 [Example 206, Cyclobutanecarboxylic acid (3-{5-cyclopropyl-2-[6-(4-cyclopropyl-piperazin-1-yl)-pyridin-3-ylamino]-pyrimidin-4-ylamino}-propyl)-amide] | < 100

Other lines, results leading:

Row | IC50 [nM] | SMILES
20 | < 100 | Cn1c(=O)n(C)c2cc(Nc3ncc(C4CC4)c(NCCCNC(=O)C4CCC4)n3)ccc21 [Example 179, Cyclobutanecarboxylic acid {3-[5-cyclopropyl-2-(1,3-dimethyl-2-oxo-2,3-dihydro-1H-benzimidazol-5-ylamino)-pyrimidin-4-ylamino]-propyl}-amide]
21 | < 100 | CN(C)C(=O)c1ccc(Nc2ncc(C3CC3)c(NCCCNC(=O)C3CCC3)n2)cc1 [Example 180, 4-{4-[3-(Cyclobutanecarbonyl-amino)-propylamino]-5-cyclopropyl-pyrimidin-2-ylamino}-N,N-dimethyl-benzamide]
22 | < 100 | O=C(NCCCNc1nc(Nc2ccc(-c3cnco3)cc2)ncc1C1CC1)C1CCC1 [Example 181, Cyclobutanecarboxylic acid {3-[5-cyclopropyl-2-(4-oxazol-5-yl-phenylamino)-pyrimidin-4-ylamino]-propyl}-amide]
23 | < 100 | O=C(NCCCNc1nc(Nc2ccc(Cn3cncn3)cc2)ncc1C1CC1)C1CCC1 [Example 182, Cyclobutanecarboxylic acid {3-[5-cyclopropyl-2-(4-1,2,4-triazol-1-ylmethyl-phenylamino)-pyrimidin-4-ylamino]-propyl}-amide]
24 | < 100 | O=C(NCCCNc1nc(Nc2ccc(CCN3CCCC3)cc2)ncc1C1CC1)C1CCC1 [Example 183, Cyclobutanecarboxylic acid (3-{5-cyclopropyl-2-[4-(2-pyrrolidin-1-yl-ethyl)-phenylamino]-pyrimidin-4-ylamino}-propyl)-amide]
25 | < 100 | O=C(NCCCNc1nc(Nc2ccc(N3CCCC3=O)cc2)ncc1C1CC1)C1CCC1 [Example 184, Cyclobutanecarboxylic acid (3-{5-cyclopropyl-2-[4-(2-oxo-pyrrolidin-1-yl)-phenylamino]-pyrimidin-4-ylamino}-propyl)-amide. xHCl]
26 | < 100 | O=C(NCCCNc1nc(Nc2ccc(-c3cnco3)nc2)ncc1C1CC1)C1CCC1 [Example 185, Cyclobutanecarboxylic acid {3-[5-cyclopropyl-2-(6-oxazol-5-yl-pyridin-3-ylamino)-pyrimidin-4-ylamino]-propyl}-amide]
27 | < 100 | O=C(NCCCNc1nc(Nc2ccc3nccn3c2)ncc1C1CC1)C1CCC1 [Example 186, Cyclobutanecarboxylic acid {3-[5-cyclopropyl-2-(imidazo[1,2-a]pyridin-6-ylamino)-pyrimidin-4-ylamino]-propyl}-amide]
28 | < 100 | O=C(NCCCNc1nc(Nc2ccc(NCC3CCOCC3)nc2)ncc1C1CC1)C1CCC1 [Example 187]
